In US9688630B2, “3,3′-disubstituted indolines as inhibitors of cholesterol ester transfer protein” (Merck Sharp & Dohme Corp., priority 2013, dated 2017):
pIC50: −log10 of the molar value.

How the values were obtained:
recombinant CETP = biological target: T1, recombinant CETP (Homo sapiens, UniProt P11597); experiment: RTA assay using recombinant CETP (2% RTA); format: biochemical; settings: 2% human serum
T1 sequence (P11597 18-493): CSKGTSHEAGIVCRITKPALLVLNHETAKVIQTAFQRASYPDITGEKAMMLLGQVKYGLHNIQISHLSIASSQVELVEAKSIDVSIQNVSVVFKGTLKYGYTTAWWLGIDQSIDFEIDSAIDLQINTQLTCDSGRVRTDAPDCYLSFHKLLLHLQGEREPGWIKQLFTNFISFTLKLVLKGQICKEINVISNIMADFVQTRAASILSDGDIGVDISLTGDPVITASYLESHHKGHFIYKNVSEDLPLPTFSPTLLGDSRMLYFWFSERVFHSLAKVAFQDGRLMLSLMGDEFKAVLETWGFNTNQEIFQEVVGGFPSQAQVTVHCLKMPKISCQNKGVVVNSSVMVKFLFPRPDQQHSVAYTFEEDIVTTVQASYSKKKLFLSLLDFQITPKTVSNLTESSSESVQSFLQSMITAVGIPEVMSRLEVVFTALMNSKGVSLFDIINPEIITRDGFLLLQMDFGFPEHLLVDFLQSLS
Method: (§1) In Vitro Radioactive Assays of CETP-Catalyzed CE and TG Transfer (RTA Assay)
(§2) Reagents and sources are: [3H] cholesteryl oleate (GE #TRK.886), [3H] Triolein (Perkin-Elmer NET-431), Butylated hydroxyl toluene (Aldrich, #D4740-4), DOPC (Sigma, #P6354), Sodium Bromide (Fisher scientific #S255-500), PEG 8000 (Fisher, #BP233-1), and human HDL (Intracel Corp #RP-036).
(§3) An in vitro assay for determining IC50's to identify compounds that inhibit CETP transfer activity is performed based on a modification of a published method (Morton and Zilversmit, (1981) A plasma inhibitor of triglyceride and cholesteryl ester transfer activities, J. Biol. Chem. 256(23), 11992-11995). The ability of inhibitors to alter CETP activity is performed using two different assays: one using recombinant CETP and one using an endogenous plasma source of CETP. Both assays measure the transfer of [3H] cholesteryl oleate or [3H] triolein from exogenous LDL to HDL.
(§4) Radiolabeled donor particles are generated by first combining 100 μl of 200 μM butylated hydroxyl toluene in CHCl3, 216 μL of 21.57 mM DOPC in EtOH, and either 500 μCi [3H]-triolein (Perkin Elmer #NET-431) or 500 μCi [3H]-cholesteryl oleate (GE #TRK886) in a glass tube. Reagents are mixed, dried under nitrogen, and then resuspended in 2 mL of 50 mM Tris, 27 μM EDTA at pH 7.4. After a brief vortex, the solution is sonicated until clear and mixed with 20 mL of fresh human serum. The mixture is incubated overnight at 37° C. The [3H] labeled LDL substrate is separated at 1.063 g/ml density by sequential ultracentrifugal flotation in NaBr according to the method of Havel, Eder, et al., 1955, and Chapman, Goldstein, et al., 1981. Once isolated the particles are dialyzed 3× in CETP buffer (50 mM Tris, pH 7.4, 100 mM NaCl, 1 mM EDTA). Human HDL is purchased from Intracel and used as the acceptor particles.
(§5) Transfer assays are performed in a 96-well v-bottom polypropylene plate. For the RTA using recombinant CETP (2% RTA), an assay cocktail is prepared with the final concentrations 128 μg/mL HDL, 20 nM rCETP, 2% human serum, and 1×CETP buffer. 1 μL of each test compound diluted in DMSO is added to 47 μL of assay cocktail per well and incubated at 37° C. for 1 hour. To initiate the transfer reaction, 2 μL radiolabeled LDL is added. After an additional 60 min of incubation at 37° C., the transfer action is terminated by precipitation of LDL with an equal volume of 20% W/V PEG 8000. The plates are centrifuged at 2000 rpm for 30 minutes at 4° C. A 40 μL aliquot of the HDL-containing supernatant is transferred to a Packard Optiplate™ with 200 μL of MicroScint™ 20. After mixing, plates are counted by liquid scintillation. Counts present in the supernatant for blanks (wells containing only HDL acceptor, CETP buffer and DMSO) are subtracted from those containing test compounds and used to correct for non-specific transfer.
(§6) Comparison of the counts of samples with inhibitors to an uninhibited (DMSO only) positive control yield a percent inhibition. A plot of percent inhibition vs. log of inhibitor concentration, fit to a Sigmoidal 4 parameter equation is used to calculate IC50.

[1] = biological target: T2, endogenous CETP from human serum (Homo sapiens, UniProt P11597); experiment: RTA assay using endogenous CETP from serum (95% RTA); format: biochemical; settings: 95% human serum
T2 construct: yielding a concentration of approximately 15 nM endogenous CETP in the assay; from tissue; host or cells: human serum
T2 sequence (P11597 18-493): T1 sequence (P11597 18-493)
Method: as §1, §2, §3, §4, §5
For the transfer assay using endogenous CETP from serum (95% RTA), the same procedure is used except that human serum is added such that a final concentration of serum of 95% of the total assay volume is achieved, yielding a concentration of approximately 15 nM endogenous CETP in the assay. This is then combined with HDL and CETP buffer and the reaction proceeds as above and is terminated as described.
as §6

[2] = cited from earlier work
[3] = Phase III outcomes trial, cited from earlier work
[4] = patients on baseline statin therapy, compared with patients treated with just a statin

Structure (SMILES) | pIC50 (recombinant CETP) | pIC50 [1] | other results
CC1(O)CN(c2cccc(C3(Cc4cccc(OC(F)(F)F)c4)CN(C[C@@H](O)C(F)(F)F)c4ccccc43)c2)C1 (stereo partly shown) [Example 33] | 5.91 | 5.36 | 
O[C@H](CN1CC(Cc2cccc(OC(F)(F)F)c2)(c2cccc(N3CC(F)C3)c2)c2ccccc21)C(F)(F)F (stereo partly shown) [Example 34] | 7.23 | 6.50 | 
O[C@H](CN1CC(Cc2cccc(OC(F)(F)F)c2)(c2cccc(N3CCC(F)(F)C3)c2)c2ccccc21)C(F)(F)F (stereo partly shown) [Example 35] | 7.01 | 6.27 | 
CO[C@@H]1CCN(c2cccc(C3(Cc4cccc(OC(F)(F)F)c4)CN(C[C@@H](O)C(F)(F)F)c4ccccc43)c2)C1 (stereo partly shown) [Example 36] | 6.94 | 6.11 | 
CO[C@H]1CCN(c2cccc(C3(Cc4cccc(OC(F)(F)F)c4)CN(C[C@@H](O)C(F)(F)F)c4ccccc43)c2)C1 (stereo partly shown) [Example 37] | 7.11 | 6.40 | 
C[C@H]1CN(c2cccc(C3(Cc4cccc(OC(F)(F)F)c4)CN(C[C@@H](O)C(F)(F)F)c4ccccc43)c2)CCO1 (stereo partly shown) [Example 38] | 6.93 | 6.17 | 
O[C@H](CN1CC(Cc2cccc(OC(F)(F)F)c2)(c2cccc(N3CCC(F)(F)CC3)c2)c2ccccc21)C(F)(F)F (stereo partly shown) [Example 39] | 6.79 | 5.97 | 
O[C@H](CN1CC(Cc2cccc(OC(F)(F)F)c2)(c2cccc(N3CCCC(F)(F)C3)c2)c2ccccc21)C(F)(F)F (stereo partly shown) [Example 40] | 6.92 | 6.10 | 
O[C@H](CN1CC(Cc2cccc(OC(F)(F)F)c2)(c2cccc(N3CC[C@H](F)C3)c2)c2ccccc21)C(F)(F)F (stereo partly shown) [Example 41] | 7.14 | 6.30 | 
O[C@H](CN1CC(Cc2cccc(OC(F)(F)F)c2)(c2cccc(N3CC[C@@H](F)C3)c2)c2ccccc21)C(F)(F)F (stereo partly shown) [Example 42] | 7.40 | 6.12 | 
C[C@@H]1CN(c2cccc(C3(Cc4cccc(OC(F)(F)F)c4)CN(C[C@@H](O)C(F)(F)F)c4ccccc43)c2)CCO1 (stereo partly shown) [Example 43] | 7.01 | 6.03 | 
OC1CCN(c2cccc(C3(Cc4cccc(OC(F)(F)F)c4)CN(C[C@@H](O)C(F)(F)F)c4ccccc43)c2)C1 (stereo partly shown) [Example 44] | 6.31 | 5.69 | 
N#Cc1cccc(CC2(c3cccc(OC(F)(F)F)c3)CN(C[C@@H](O)C(F)(F)F)c3ccccc32)c1 (stereo partly drawn) [Example 45, 3-((1-((R)-3,3,3-trifluoro-2-hydroxypropyl)-3-(3-(trifluoromethoxy)phenyl)indolin-3-yl)methyl)benzonitrile] | 6.77 | 6.04 | 
CS(=O)(=O)c1cccc(CC2(c3cccc(OC(F)(F)F)c3)CN(C[C@@H](O)C(F)(F)F)c3ccccc32)c1 (stereo partly drawn) [Example 46, (2R)-1,1,1-trifluoro-3-(3-(3-(methylsulfonyl)benzyl)-3-(3-(trifluoromethoxy)phenyl)indolin-1-yl)propan-2-ol] | 6.58 | 5.05 | 
O[C@H](CN1CC(Cc2cccc(-c3cccc(OC(F)(F)F)c3)c2)(c2cccc(OC(F)(F)F)c2)c2ccccc21)C(F)(F)F (stereo partly drawn) [Example 47, (2R)-1,1,1-trifluoro-3-(3-((3′-(trifluoromethoxy)-[1,1′-biphenyl]-3-yl)methyl)-3-(3-(trifluoromethoxy)phenyl)indolin-1-yl)propan-2-ol] | 6.14 | 5.54 | 
O[C@H](CN1CC(Cc2cccc(N3CC(F)(F)C3)c2)(c2cccc(OC(F)(F)F)c2)c2ccccc21)C(F)(F)F (stereo partly drawn) [Example 48, (2R)-3-(3-(3-(3,3-difluoroazetidin-1-yl)benzyl)-3-(3-(trifluoromethoxy)phenyl)indolin-1-yl)-1,1,1-trifluoropropan-2-ol] | 7.08 | 6.61 | 
CO[C@H]1CCN(c2cccc(CC3(c4cccc(OC(F)(F)F)c4)CN(C[C@@H](O)C(F)(F)F)c4ccccc43)c2)C1 (stereo partly shown) [Example 49] | 6.71 | 5.68 | 
C[C@H]1CN(c2cccc(CC3(c4cccc(OC(F)(F)F)c4)CN(C[C@@H](O)C(F)(F)F)c4ccccc43)c2)CCO1 (stereo partly shown) [Example 50] | 6.32 | 5.31 | 
C[C@@H]1CN(c2cccc(CC3(c4cccc(OC(F)(F)F)c4)CN(C[C@@H](O)C(F)(F)F)c4ccccc43)c2)CCO1 (stereo partly shown) [Example 51] | 5.79 | 5.76 | 
O[C@H](CN1CC(Cc2cccc(N3CC(F)C3)c2)(c2cccc(OC(F)(F)F)c2)c2ccccc21)C(F)(F)F (stereo partly shown) [Example 52] | 6.35 | 5.23 | 
CC1(O)CN(c2cccc(CC3(c4cccc(OC(F)(F)F)c4)CN(C[C@@H](O)C(F)(F)F)c4ccccc43)c2)C1 (stereo partly shown) [Example 53] | 6.17 | 5.09 | 
O[C@H](CN1CC(Cc2cccc(N3CCC(F)(F)C3)c2)(c2cccc(OC(F)(F)F)c2)c2ccccc21)C(F)(F)F (stereo partly shown) [Example 54] | 6.29 | 5.44 | 
O[C@H](CN1CC(Cc2cccc(N3CC4(COC4)C3)c2)(c2cccc(OC(F)(F)F)c2)c2ccccc21)C(F)(F)F (stereo partly shown) [Example 55] | 7.01 | 6.27 | 
O[C@H](CN1CC(Cc2cccc(N3CCC(F)(F)CC3)c2)(c2cccc(OC(F)(F)F)c2)c2ccccc21)C(F)(F)F (stereo partly shown) [Example 56] | 6.38 | 5.16 | 
O[C@H](CN1CC(Cc2cccc(N3CC[C@H](F)C3)c2)(c2cccc(OC(F)(F)F)c2)c2ccccc21)C(F)(F)F (stereo partly shown) [Example 57] | 6.46 | 5.43 | 
O[C@H](CN1CC(Cc2cccc(N3CC[C@@H](F)C3)c2)(c2cccc(OC(F)(F)F)c2)c2ccccc21)C(F)(F)F (stereo partly shown) [Example 58] | 6.77 | 5.85 | 
O[C@H](CN1CC(Cc2cccc(N3CCCC(F)(F)C3)c2)(c2cccc(OC(F)(F)F)c2)c2ccccc21)C(F)(F)F (stereo partly shown) [Example 59] | 6.70 | 5.85 | 
COC(=O)c1cccc(CC2(c3cccc(OC(F)(F)F)c3)CN(C[C@@H](O)C(F)(F)F)c3ccccc32)c1 (stereo partly drawn) [Example 60, Methyl 3-((1-((R)-3,3,3-trifluoro-2-hydroxypropyl)-3-(3-(trifluoromethoxy)phenyl)indolin-3-yl)methyl)benzoate] | 6.18 | 6.03 | 
COc1cc(F)c(C(C)C)cc1-c1ccc(C(F)(F)F)cc1CN1C(=O)O[C@H](c2cc(C(F)(F)F)cc(C(F)(F)F)c2)[C@@H]1C [anacetrapib] |  |  | decrease of LDL-C [2, 4]: 40%; increase of HDL-C [2, 4]: 138%; increase in mortality ([2]; patients treated with anacetrapib, DEFINE trial): unlikely
CCC(CC)CC1(C(=O)Nc2ccccc2SC(=O)C(C)C)CCCCC1 [dalcetrapib] |  |  | clinical benefit (interim data) ([3]; terminated early): did not show a clinical benefit; safety issues [3]: no safety issues detected
